Data as given in ChEMBL document CHEMBL1145605, “Novel 2-imidazoles as potent and selective alpha1A adrenoceptor partial agonists” (Bioorg Med Chem Lett, 2008).

Assays:
[1] = target: T1, Alpha-2A adrenergic receptor (Homo sapiens, UniProt P08913); assay: Agonist activity at human cloned adrenergic alpha-2A receptor expressed in CHOK1 cells by beta-lactamase reporter gene assay; format: functional, cell-based, CHO-K1
T1 sequence (P08913 whole entry): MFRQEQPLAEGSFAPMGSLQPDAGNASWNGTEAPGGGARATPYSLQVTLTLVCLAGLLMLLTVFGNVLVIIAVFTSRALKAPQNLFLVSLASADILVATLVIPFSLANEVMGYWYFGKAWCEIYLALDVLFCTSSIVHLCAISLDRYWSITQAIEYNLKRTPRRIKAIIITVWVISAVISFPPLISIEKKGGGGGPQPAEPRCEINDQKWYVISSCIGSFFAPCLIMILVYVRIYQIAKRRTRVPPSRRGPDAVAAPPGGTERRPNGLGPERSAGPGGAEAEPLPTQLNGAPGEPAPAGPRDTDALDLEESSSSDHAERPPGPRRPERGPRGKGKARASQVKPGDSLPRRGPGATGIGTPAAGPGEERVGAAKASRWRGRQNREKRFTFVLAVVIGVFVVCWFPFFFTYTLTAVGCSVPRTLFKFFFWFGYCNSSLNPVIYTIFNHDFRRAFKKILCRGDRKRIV

[2] = target: T2, Alpha-1A adrenergic receptor (Homo sapiens, UniProt P35348); assay: Agonist activity at human cloned adrenergic alpha-1A receptor expressed in CHO cells assessed as calcium mobilization by FLIPR; format: functional, cell-based
T2 sequence (P35348 whole entry): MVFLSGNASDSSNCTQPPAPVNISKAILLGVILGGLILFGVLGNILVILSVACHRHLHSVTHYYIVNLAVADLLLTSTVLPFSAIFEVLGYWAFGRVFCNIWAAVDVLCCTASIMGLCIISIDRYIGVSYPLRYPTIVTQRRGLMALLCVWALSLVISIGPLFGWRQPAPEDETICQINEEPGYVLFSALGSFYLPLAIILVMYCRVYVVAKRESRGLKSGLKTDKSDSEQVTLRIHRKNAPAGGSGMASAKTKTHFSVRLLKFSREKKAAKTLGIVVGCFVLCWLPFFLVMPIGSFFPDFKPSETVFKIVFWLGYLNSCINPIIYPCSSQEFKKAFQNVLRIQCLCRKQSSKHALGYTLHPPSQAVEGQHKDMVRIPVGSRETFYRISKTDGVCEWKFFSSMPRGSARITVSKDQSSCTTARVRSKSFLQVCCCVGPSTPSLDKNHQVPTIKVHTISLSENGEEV

[3] = target: T3, Alpha-1B adrenergic receptor (Homo sapiens, UniProt P35368); assay: Agonist activity at human cloned adrenergic alpha-1B receptor expressed in CHO cells assessed as calcium mobilization by FLIPR; format: functional, cell-based
T3 sequence (P35368 whole entry): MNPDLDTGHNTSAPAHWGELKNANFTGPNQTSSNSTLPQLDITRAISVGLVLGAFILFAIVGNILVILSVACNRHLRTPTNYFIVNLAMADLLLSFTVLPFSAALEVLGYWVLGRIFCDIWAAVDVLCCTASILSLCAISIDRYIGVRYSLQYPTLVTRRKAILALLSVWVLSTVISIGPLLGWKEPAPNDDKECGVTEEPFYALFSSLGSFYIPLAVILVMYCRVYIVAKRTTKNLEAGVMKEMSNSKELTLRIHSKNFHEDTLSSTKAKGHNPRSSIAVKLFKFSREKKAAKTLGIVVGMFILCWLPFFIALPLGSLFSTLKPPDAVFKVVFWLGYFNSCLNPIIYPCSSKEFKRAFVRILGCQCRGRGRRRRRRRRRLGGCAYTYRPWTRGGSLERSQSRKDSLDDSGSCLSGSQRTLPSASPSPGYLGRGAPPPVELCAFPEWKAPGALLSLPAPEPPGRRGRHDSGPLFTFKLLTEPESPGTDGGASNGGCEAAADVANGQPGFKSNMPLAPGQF

[4] = target: T4, Alpha-1A adrenergic receptor (Homo sapiens) (UniProt P35348); assay: Agonist activity at human cloned adrenergic alpha-1A receptor expressed in CHO cells assessed as calcium mobilization by FLIPR relative to phenylephrine; format: functional, cell-based
T4 sequence (whole entry): T2 sequence (P35348 whole entry)

[5] = target: T5, Alpha-1D adrenergic receptor (Homo sapiens, UniProt P25100); assay: Agonist activity at human cloned adrenergic Alpha-1D receptor expressed in CHO cells assessed as calcium mobilization by FLIPR; format: functional, cell-based
T5 sequence (P25100 whole entry): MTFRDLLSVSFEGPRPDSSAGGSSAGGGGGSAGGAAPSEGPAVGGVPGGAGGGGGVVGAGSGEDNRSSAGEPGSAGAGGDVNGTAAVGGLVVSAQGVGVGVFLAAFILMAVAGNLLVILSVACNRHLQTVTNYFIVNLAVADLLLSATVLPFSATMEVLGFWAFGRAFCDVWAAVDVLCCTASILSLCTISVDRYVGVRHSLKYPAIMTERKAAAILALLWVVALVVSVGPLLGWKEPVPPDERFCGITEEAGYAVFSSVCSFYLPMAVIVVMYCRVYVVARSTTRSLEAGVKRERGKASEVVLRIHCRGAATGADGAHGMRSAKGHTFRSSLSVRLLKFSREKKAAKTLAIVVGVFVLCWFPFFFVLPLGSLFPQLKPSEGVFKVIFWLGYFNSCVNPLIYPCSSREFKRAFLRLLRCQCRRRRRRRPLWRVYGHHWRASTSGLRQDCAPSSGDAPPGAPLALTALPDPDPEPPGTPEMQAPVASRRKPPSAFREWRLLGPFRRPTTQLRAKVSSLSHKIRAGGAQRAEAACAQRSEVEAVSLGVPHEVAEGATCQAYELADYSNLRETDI

[6] = target: T6, Alpha-1B adrenergic receptor (Homo sapiens) (UniProt P35368); assay: Agonist activity at human cloned adrenergic Alpha-1B receptor expressed in CHO cells assessed as calcium mobilization by FLIPR relative to phenylephrine; format: functional, cell-based
T6 sequence (whole entry): T3 sequence (P35368 whole entry)

[7] = target: T7, Alpha-1D adrenergic receptor (Homo sapiens) (UniProt P25100); assay: Agonist activity at human cloned adrenergic Alpha-1D receptor expressed in CHO cells assessed as calcium mobilization by FLIPR relative to phenylephrine; format: functional, cell-based
T7 sequence (whole entry): T5 sequence (P25100 whole entry)

[8] = target: T8, Alpha-2A adrenergic receptor (Homo sapiens) (UniProt P08913); assay: Agonist activity at human cloned adrenergic alpha-2A receptor expressed in CHOK1 cells by beta-lactamase reporter gene assay relative to dexmeditomidine; format: functional, cell-based; details: CHO-K1
T8 sequence (whole entry): T1 sequence (P08913 whole entry)

| Structure (SMILES) | EC50 [1] [µM] | EC50 [2] [µM] | EC50 [3] [µM] | Emax [4] [%] | EC50 [5] [µM] | Emax [6] [%] | Emax [7] [%] | EC50 ([1]; cho-k1) [µM] | EC50 ([3]; cho) [µM] | EC50 ([5]; cho) [µM] | Emax [8] [%] |
| --- | --- | --- | --- | --- | --- | --- | --- | --- | --- | --- | --- |
| CCS(=O)(=O)Nc1cccc2c1CCC2c1ncc[nH]1 (stereo not drawn) | > 10 | 0.032 | > 10 | 86 | > 10 |  |  |  |  |  |  |
| CS(=O)(=O)Nc1cccc2c1CCC2c1ncc[nH]1 (stereo not drawn) | > 10 | 0.07 | > 10 | 87 | > 10 |  |  |  |  |  |  |
| COc1c(Cl)ccc2c1CCC2c1ncc[nH]1 (stereo not drawn) |  | 0.451 | > 10 | 24 | > 10 |  |  |  |  |  |  |
| Cc1n[nH]cc1-c1cccc2c1CCC2c1ncc[nH]1 (stereo not drawn) |  |  |  | 91 |  | 14 | 66 |  |  |  |  |
| CCS(=O)(=O)Nc1cccc(Cc2c[nH]cn2)c1 | > 10 | 0.009 | > 10 | 96 | > 10 |  |  |  |  |  |  |
| CS(=O)(=O)Nc1cccc2c1CCCC2c1ncc[nH]1 (stereo in doubt; 17b) [listing 1 of 2 here] | > 10 | 2.15 | > 10 |  | > 10 |  |  |  |  |  |  |
| CS(=O)(=O)Nc1cccc2c1CCCC2c1ncc[nH]1 (stereo in doubt; 17a) [listing 1 of 2 here] |  | 0.142 |  |  |  |  |  | > 10 | > 10 | > 10 |  |
| c1cc(-c2cn[nH]c2)c2c(c1)C(c1ncc[nH]1)CC2 (stereo not drawn) | > 10 | 0.014 | > 10 | 84 | 0.319 |  | 52 |  |  |  |  |
| c1cc(-c2ncco2)c2c(c1)C(c1ncc[nH]1)CC2 (stereo not drawn) | > 10 | 0.17 | > 10 | 63 | 1.39 |  | 38 |  |  |  |  |
| Cc1oncc1-c1cccc2c1CCC2c1ncc[nH]1 (stereo not drawn) | > 10 | 0.111 | > 10 | 63 | > 10 |  |  |  |  |  |  |
| c1cc(-c2nccs2)c2c(c1)C(c1ncc[nH]1)CC2 (stereo not drawn) | > 10 | 0.426 | > 10 | 64 | 3.19 |  | 27 |  |  |  |  |
| Cc1c(OCC2=NCCN2)ccc(Cl)c1NS(C)(=O)=O [DABUZALGRON] | > 10 |  | > 10 | 60 | > 10 |  |  |  |  |  |  |
| Cc1ccc2c(c1NS(C)(=O)=O)CCC2c1ncc[nH]1 (stereo not drawn) |  | 0.033 | > 10 | 83 | > 10 |  |  |  |  |  |  |
| c1ccc2c(c1)CCCC2c1ncc[nH]1 (stereo not drawn) | 0.722 | 0.385 | 0.791 | 71 | 0.364 | 58 | 74 |  |  |  | 105 |
| Clc1ccc2c(c1-c1ccn[nH]1)CCC2c1ncc[nH]1 (stereo not drawn) | > 10 | 0.322 | > 10 | 40 | > 10 |  |  |  |  |  |  |
| Cc1[nH]ncc1-c1cccc2c1CCC2c1ncc[nH]1 (stereo not drawn) | > 10 | 0.003 | 0.902 |  | 0.634 |  |  |  |  |  |  |
| c1ccc2c(c1)CCC2c1ncc[nH]1 (stereo not drawn) |  | 0.473 | > 10 | 54 | > 10 |  |  |  |  |  |  |

| Structure (SMILES) | EC50 [1] [µM] | EC50 [2] [µM] | EC50 [3] [µM] | Emax [4] [%] | EC50 [5] [µM] | Emax [6] [%] | Emax [7] [%] | EC50 ([1]; cho-k1) [µM] | EC50 ([3]; cho) [µM] | EC50 ([5]; cho) [µM] | Emax [8] [%] |
| --- | --- | --- | --- | --- | --- | --- | --- | --- | --- | --- | --- |
| c1cc(-c2cc[nH]n2)c2c(c1)C(c1ncc[nH]1)CC2 (stereo not drawn) | > 10 | 0.052 | 0.6 |  | 0.336 |  |  |  |  |  |  |
| COc1cccc2c1CCC2c1ncc[nH]1 (stereo not drawn) | 0.027 | 0.032 | > 10 | 65 | > 10 |  |  |  |  |  | 100 |
| CS(=O)(=O)Nc1cccc2c1CCCC2c1ncc[nH]1 (stereo in doubt; 17b) [listing 2 of 2 here] |  |  |  | 47 |  |  |  |  |  |  |  |
| CS(=O)(=O)Nc1cccc2c1CCCC2c1ncc[nH]1 (stereo in doubt; 17) [listing 1 of 2 here] |  |  |  | 79 |  |  |  |  |  |  |  |
| Clc1ccc2c(c1-c1cn[nH]c1)CCC2c1ncc[nH]1 (stereo not drawn) | > 10 | 0.078 | > 10 |  | > 10 |  |  |  |  |  |  |
| CS(=O)(=O)Nc1cccc2c1CCCC2c1ncc[nH]1 (stereo in doubt; 17a) [listing 2 of 2 here] |  |  |  | 79 |  |  |  |  |  |  |  |
| CNC(=O)c1cccc2c1CCC2c1ncc[nH]1 (stereo not drawn) | 4.34 | 2.2 | > 10 | 59 | > 10 |  |  |  |  |  | 44 |
| CS(=O)(=O)Nc1cccc2c1CCCC2c1ncc[nH]1 (stereo in doubt; 17) [listing 2 of 2 here] |  | 0.234 |  |  |  |  |  | > 10 | > 10 | > 10 |  |
| Cn1ccc(-c2cccc3c2CCC3c2ncc[nH]2)n1 (stereo not drawn) | > 10 | > 1.3 | > 10 | 19 | > 10 |  |  |  |  |  |  |
| COc1c(C)ccc2c1CCC2c1ncc[nH]1 (stereo not drawn) | 0.327 | 0.167 | > 10 | 40 | > 10 |  |  |  |  |  | 89 |
| c1ccc(-c2cccc3c2CCC3c2ncc[nH]2)nc1 (stereo not drawn) | > 10 | 1.15 | > 10 | 53 | > 10 |  |  |  |  |  |  |
| c1cc(-c2ccn[nH]2)c2c(c1)C(c1ncc[nH]1)CC2 (stereo not drawn) |  |  |  | 83 |  | 32 | 57 |  |  |  |  |
| CCCS(=O)(=O)Nc1cccc2c1CCC2c1ncc[nH]1 (stereo not drawn) |  | 1.34 | > 10 | 54 | > 10 |  |  |  |  |  |  |
| c1cncc(-c2cccc3c2CCC3c2ncc[nH]2)c1 (stereo not drawn) | 4.58 | 2.06 | > 10 | 36 | > 10 |  |  |  |  |  | 25 |
| Cn1nccc1-c1cccc2c1CCC2c1ncc[nH]1 (stereo not drawn) | > 10 | 0.278 | > 10 | 58 | > 10 |  |  |  |  |  |  |
| Cn1cc(-c2cccc3c2CCC3c2ncc[nH]2)cn1 (stereo not drawn) | > 10 | > 2.9 | > 10 | 12 | > 10 |  |  |  |  |  |  |
